Results reported in patent US20070155679A1, “USE OF BR[…] THE TREATMENT OF […] ASSOCIATED WITH H[…] NOVEL MEDICAMENT COMBINATIONS” (priority 2000, published 2007).

Tested on: hypertrophic cardiomyopathy
Test: Cat with severe hypertrophic cardiomyopathy treated with cilobradine
Type: in vivo
Conditions: 0.3 mg/kg per os, 2x daily
Excerpt: The new use of the bradycardiac substances according to the invention was investigated with the if channel blocker cilobradine by way of example, using the following method:
The hypertrophic cardiomyopathy in the cat serves as a model for the corresponding disease in humans (Kittleson et al., Circulation 91, 3172-3180 (1999)).

COc1ccc(CCN2CCC[C@H](CN3CCc4cc(OC)c(OC)cc4CC3=O)C2)cc1OC [cilobradine]
clinical symptoms (relief from pain, normal ECG, return of normal physiological activity pattern) (cat with severe hypertrophic cardiomyopathy): significant improvement in clinical symptoms | myocardial hypertrophy at follow-up (cat, follow-up after one year and after about 2 years' treatment): regression in myocardial hypertrophy
